Test results published in patent US20260158002A1, “APPLICATION OF COMPOSITION CONTAINING EDARAVONE AND DEXBORNEOL IN IMPROVING OR TREATING COGNITIVE IMPAIRMENT” (NEURODAWN PHARMACEUTICAL CO., LTD., priority 2021, published 2026).

Columns and labels:
GABAAR receptors = settings: cited from earlier work
primary cortical neurons = assay: Aβ1-42-induced primary cortical neuronal injury test (Luminescent Cell Viability Assay); type: cell-based, rat; settings: single agent, pre-incubation 30 min before oligomerized Aβ1-42 50 μM, 24 h; edaravone 3.7 to 100 μM, dexborneol 1.2 to 100 μM; vs DMSO group
Experimental: A SD pregnant rat at 18 days of pregnancy was sacrificed by cervical dislocation, the uteruses of the rat were dissected, the brain of E18 fetal rat was taken out, the cerebral cortical tissue of the fetal rat was isolated into an ice-cold DMEM, the meninge and blood vessels were removed from the cortical tissue under a dissecting microscope, the cortical tissue was transferred to an ice-cold DMEM and minced (about 1 mm^3), and digested with trypsin at 37° C. for 10 min, the digestion was terminated with FBS, a Pasteur pipette was used to perform gentle pipetting and dispersing, and screening was then performed using a 200-mesh sieve. […] The cells were counted by a hemocytometer, diluted to 5×10^5 cells/ml with a complete medium, and seeded in a 96-well plate coated with PDL (100 μL/well) for culture. […]
The medium of the in vitro matured primary neurons was replaced with a complete medium containing different concentrations (1.2, 3.7, 11.1, 33.3, 100.0 μM) of edaravone (E), dexborneol (B) or an edaravone and dexborneol composition (EB), after incubation at 37° C. for 30 min, oligomerized Aβ1-42 (final concentration of 50 μM) was added, the culture was continued for 24 h, and the neuronal viability was tested. […] LUMbackground is the background reading of the cell-free medium well into which Luminescent Cell Viability Assay kit is added. […]

[1] = test system: pro-inflammatory factors (TNF-α, IL-1β, etc.) and inflammatory proteins (iNOS and COX-2); settings: cited from earlier work

## CC1(C)[C@@H]2CC[C@@]1(C)[C@@H](O)C2 [dexborneol, (+)-borneol]
GABAAR receptors
  agonism of inhibitory GABAAR receptors: can agonize inhibitory GABAAR receptors
Primary cortical neurons
  inhibiting Aβ-induced neurotoxicity, increasing the cell viability: capable of inhibiting Aβ-induced neurotoxicity in a concentration-dependent manner
[1]
  pro-inflammatory factors and inflammatory proteins within the brain: reduce multiple pro-inflammatory factors (TNF-α, IL-1β, etc.) and inflammatory proteins (iNOS and COX-2) within the brain
